PMC6792352, “Limited Chemical Structural Diversity Found to Modulate Thyroid Hormone Receptor in the Tox21 Chemical Library” (Environmental Health Perspectives, 2019)
Structures can show the parent of a compound that is named as a salt.

Test: in vitro
Settings: rat, gh3-tre-luc cells, AC50 (uM) modified / 1000

Compound | CC50 at 24 h
OCCC1CCCCN1 (stereo not shown) [2-?Piperidineethanol] | > 90 µM
COC(=O)NC(=S)Nc1ccccc1NC(=S)NC(=O)OC [Thiophanate-methyl] | > 90 µM
CCCCCCCCCCCCCN1CC(C)OC(C)C1 (stereo not shown) [Tridemorph] | > 90 µM
CCCNC(C)C(=O)Nc1c(C)csc1C(=O)OC (stereo not shown) [Articaine hydrochloride] | > 20 µM
CCOC(=O)c1ccc(O)cc1 [Ethylparaben] | > 90 µM
O=C(O)c1cc(I)cc(I)c1I [2,3,5-Triiodobenzoic acid] | > 100 µM
COC(=O)/C=C\C(=O)O [2-Butenedioic acid (2Z)-, monomethyl ester] | > 90 µM
O=C(O)C[C@H](O)C[C@H](O)/C=C/c1c(C2CC2)nc2ccccc2c1-c1ccc(F)cc1 [Pitavastatin calcium] | > 50 µM
Cc1nc(-c2ccccn2)ncc1C(=O)Nn1cc(C)c2cc(F)ccc21 [SAR102608] | > 90 µM
CCCCc1cc2c(=O)c(C(=O)OC)c[nH]c2cc1OCc1ccccc1 [Nequinate] | > 50 µM
CN1[C@@H]2CC[C@H]1C[C@@H](OC(=O)c1cc(Cl)cc(Cl)c1)C2 [MDL 72222] | 35.2 µM
NC(=O)C(c1ccccc1)(c1ccccc1)[C@@H]1CCN(CCc2ccc3c(c2)CCO3)C1 [Darifenacin hydrobromide] | 14.7 µM
[H]/N=C(\N/C(=N/[H])Nc1ccc(Cl)cc1)NC(C)C [Proguanil hydrochloride] | > 20 µM
FC(F)(F)C(F)(F)C(F)(F)C(F)(F)C(F)(F)C(F)(F)CCI [1H,1H,2H,2H-Perfluorooctyl iodide] | > 50 µM
CCc1c(C(=O)NN2CCCCC2)nn(-c2ccc(Cl)cc2Cl)c1-c1ccc(Br)cc1 [Surinabant] | 12.3 µM
Cc1cc(C)c(/C=C2\C(=O)Nc3ccccc32)[nH]1 [SU-5416] | > 50 µM
O=S(=O)(O)c1cc(O)c2c(/N=N/c3ccc(Nc4ccccc4)c4c(S(=O)(=O)O)cccc34)cc(S(=O)(=O)O)cc2c1 [Anazolene sodium] | 22.8 µM
CC[C@]12CCCN3CCc4c(n(c5ccccc45)[C@@](O)(C(=O)OC)C1)[C@@H]32 [Vincamine] | 65.8 µM
CC(C)C(=O)O [2-Methylpropanoic acid] | > 90 µM
N#Cc1ccccc1O [2-Hydroxybenzonitrile] | > 90 µM
C/C=C1/C(=O)C[C@H]2[C@@H]3CCC4=CC(=O)CC[C@]4(C)[C@H]3CC[C@]12C [Guggulsterone E] | > 90 µM
CC(C)Cc1ccc([C@H](C)C(=O)O)cc1 [Dexibuprofen] | > 50 µM
c1ccc2c(c1)ccc1ccccc12 [Phenanthrene] | > 90 µM

Compound | CC50 at 24 h
C=C1C[C@H]2[C@@H]3C=C(C)C4=CC(=O)CC[C@]4(C)[C@H]3CC[C@]2(C)[C@@]1(OC(C)=O)C(C)=O [Melengestrol acetate] | > 60 µM
CCCN(CCC)C(=O)SCC [EPTC] | > 100 µM
CCC(=O)OCC(=O)[C@@]1(OC(=O)CC)[C@@H](C)C[C@H]2[C@@H]3CCC4=CC(=O)C=C[C@]4(C)[C@@]3(F)[C@@H](O)C[C@@]21C [Betamethasone dipropionate] | > 50 µM
C[C@H](O)[C@H](O)[C@H]1CNc2nc(N)[nH]c(=O)c2N1 [(6R)-Tetrahydrobiopterin dihydrochloride] | > 50 µM
Oc1cccc(Cl)c1 [3-Chlorophenol] | > 90 µM
CC1=C(C(=O)O)N2C(=O)[C@@H](NC(=O)[C@H](N)C3=CCC=CC3)[C@H]2SC1 [Cephradine] | > 50 µM
Cl[C@H]1[C@H](Cl)[C@@H](Cl)[C@H](Cl)[C@@H](Cl)[C@@H]1Cl [beta-Hexachlorocyclohexane] | > 90 µM
CC(C)(C)C(=O)OCC(=O)[C@H]1CC[C@H]2[C@@H]3CCC4=CC(=O)CC[C@]4(C)[C@H]3CC[C@]12C [Desoxycorticosterone pivalate] | > 50 µM
CN1CCN(CCCN2c3ccccc3Sc3ccc(C(F)(F)F)cc32)CC1 [Fluoperazine dihydrochloride] | 7.86 µM
O=[N+]([O-])c1ccccc1Nc1ccccc1 [2-Nitrodiphenylamine] | > 90 µM
C1COCO1 [1,3-Dioxolane] | > 90 µM
CCC(=O)OCCC(C)CCC=C(C)C (stereo not shown) [Citronellyl propionate] | > 90 µM
COCCOc1cc2cc(C(=O)NC3CCN(C(C)C)CC3)n(CC(=O)Nc3ccc(Cl)cn3)c2cn1 [SAR377142] | 71.7 µM
NC(=O)c1c(Cl)cccc1Cl [2,6-Dichlorobenzamide] | > 90 µM
CC(O)CC(C)(C)O (stereo not shown) [2-Methyl-2,4-pentanediol] | > 90 µM
N[C@@H](CSSC[C@H](N)C(=O)O)C(=O)O [L-Cystine] | > 50 µM
CCCCCCCCCCCCOCCOCCOCCOCCOCCOCCOCCOCCOCCO [Polyoxyethylene (9) lauryl ether] | 9.84 µM
CC(C)(C)NC[C@H](O)COc1ccccc1C1CCCC1 [Penbutolol sulfate] | 11.1 µM
CCNCC [Diethylamine] | > 100 µM
CN(C)CCCN1c2ccccc2C(C)(C)c2ccccc21 [Dimetacrine] | 14.8 µM
Cc1[nH]c(=O)n(C(C)(C)C)c(=O)c1Cl [Terbacil] | > 90 µM
Sc1nnc(S)s1 [2,5-Dimercapto-1,3,4-thiadiazole] | > 90 µM
Cc1cc(Cl)ccc1OC(C)C(=O)O (stereo not shown) [Mecoprop] | > 90 µM

Compound | CC50 at 24 h
CC(C)(C)c1cc(CO)cc(C(C)(C)C)c1O | 82.2 µM
NNCCc1ccccc1 [Phenylethylhydrazine sulfate] | 32.3 µM
O=C(Nc1cccc(C2=NCCN2)c1)Nc1cccc(C2=NCCN2)c1 [Imidocarb dipropionate] | > 50 µM
O=S(=O)(O)c1ccc2[nH]c(-c3ccccc3)nc2c1 [Ensulizole] | > 90 µM
CN(C)CCn1nnnc1SCC1=C(C(=O)O)N2C(=O)[C@@H](NC(=O)Cc3csc(N)n3)[C@H]2SC1 [Cefotiam hydrochloride] | > 20 µM
CCCCC(=O)OCC(=O)[C@]1(O)Cc2c(O)c3c(c(O)c2[C@@H](O[C@H]2C[C@H](NC(=O)C(F)(F)F)[C@H](O)[C@H](C)O2)C1)C(=O)c1c(OC)cccc1C3=O [Valrubicin] | 8.11 µM
CC(C)CCCCCCc1ccc(OCCOCCO)cc1 [Igepal CO-890] | > 100 µM
CCC1(C2=NCCN2)Cc2ccccc2O1 (stereo not shown) [Efaroxan] | > 50 µM
Nc1cc(Cl)c(O)c(Cl)c1 [4-Amino-2,6-dichlorophenol] | 83.2 µM
CO[C@H]1/C=C/O[C@@]2(C)Oc3c(C)c(O)c4c(O)c(cc(O)c4c3C2=O)NC(=O)/C(C)=C\C=C\[C@H](C)[C@H](O)[C@@H](C)[C@@H](O)[C@@H](C)[C@H](OC(C)=O)[C@@H]1C [Rifamycin SV sodium salt] | 50.2 µM
NCC1CCCC(CN)C1 (stereo not shown) [1,3-Cyclohexanedimethanamine] | > 90 µM
Cc1ccc(C(=O)O)o1 [5-Methyl-2-furancarboxylic acid] | > 90 µM
O=C(CCBr)N1CCN(C(=O)CCBr)CC1 [Pipobroman] | > 50 µM
FC(F)(F)C(F)(F)C(F)(F)C(F)(F)C(F)(F)C(F)(F)F [Perflexane] | > 50 µM
CC/C=C\CCO [(Z)-3-Hexen-1-ol] | > 90 µM
NC(=O)c1cn(Cc2c(F)cccc2F)nn1 [Rufinamide] | > 50 µM
O=C(NCO)NCO [Dimethylolurea] | > 100 µM
CC(C(=O)O)c1ccc(N2Cc3ccccc3C2=O)cc1 (stereo not shown) [Indoprofen] | > 50 µM
CC(CCc1ccc(O)cc1)NCCc1ccc(O)c(O)c1 (stereo not shown) [Dobutamine] | > 50 µM
COC(F)(F)C(Cl)Cl [Methoxyflurane] | > 50 µM
C/C(=N\C#N)N(C)Cc1ccc(Cl)nc1 [Acetamiprid] | > 90 µM

Same assay, conditions: rat, gh3-tre-luc cells, AC50 (uM) modified / 1000, Tox21_110001=Tox21_111131; viability, 1 nM T3 present, 24 h

Compound | CC50 at 24 h
C[C@]12C/C(=C/O)C(=O)C[C@@H]1CC[C@@H]1[C@@H]2CC[C@@]2(C)[C@H]1CC[C@]2(C)O [Oxymetholone] | > 50 µM

Same assay, conditions: rat, gh3-tre-luc cells, AC50 (uM) modified / 1000, Tox21_110001=Tox21_111183; viability, 1 nM T3 present, 24 h

Compound | CC50 at 24 h
CN1C[C@H](C(=O)N[C@]2(C)O[C@@]3(O)[C@@H]4CCCN4C(=O)[C@H](Cc4ccccc4)N3C2=O)C=C2c3cccc4[nH]cc(c34)C[C@H]21 [Ergotamine D-tartrate] | > 50 µM

Same assay, conditions: rat, gh3-tre-luc cells, AC50 (uM) modified / 1000, Tox21_110001=Tox21_200071; viability, 1 nM T3 present, 24 h

Compound | CC50 at 24 h
C[C@]12C/C(=C/O)C(=O)C[C@@H]1CC[C@@H]1[C@@H]2CC[C@@]2(C)[C@H]1CC[C@]2(C)O [Oxymetholone] | 67.3 µM

Same assay, conditions: rat, gh3-tre-luc cells, AC50 (uM) modified / 1000, Tox21_110001=Tox21_200633; viability, 1 nM T3 present, 24 h

Compound | CC50 at 24 h
CCC(C)Br (stereo not shown) [2-Bromobutane] | > 100 µM

Same assay, conditions: rat, gh3-tre-luc cells, AC50 (uM) modified / 1000, Tox21_110001=Tox21_200790; viability, 1 nM T3 present, 24 h

Compound | CC50 at 24 h
ClCBr [Bromochloromethane] | > 100 µM

Same assay, conditions: rat, gh3-tre-luc cells, AC50 (uM) modified / 1000, Tox21_110001=Tox21_200855; viability, 1 nM T3 present, 24 h

Compound | CC50 at 24 h
CC(C)OS(C)(=O)=O [Isopropyl methanesulfonate] | > 90 µM

Same assay, conditions: rat, gh3-tre-luc cells, AC50 (uM) modified / 1000, Tox21_110001=Tox21_201361; viability, 1 nM T3 present, 24 h

Compound | CC50 at 24 h
C=CC(Cl)CCl (stereo not shown) [3,4-Dichloro-1-butene] | > 90 µM

Same assay, conditions: rat, gh3-tre-luc cells, AC50 (uM) modified / 1000, Tox21_110001=Tox21_201705; viability, 1 nM T3 present, 24 h

Compound | CC50 at 24 h
CN1C[C@H](C(=O)N[C@]2(C)O[C@@]3(O)[C@@H]4CCCN4C(=O)[C@H](Cc4ccccc4)N3C2=O)C=C2c3cccc4[nH]cc(c34)C[C@H]21 [Ergotamine D-tartrate] | > 90 µM

Same assay, conditions: rat, gh3-tre-luc cells, AC50 (uM) modified / 1000, Tox21_110001=Tox21_201723; viability, 1 nM T3 present, 24 h

Compound | CC50 at 24 h
Nc1ccc(Cc2ccc(N)cc2)cc1 [4,4'-Methylenedianiline] | > 90 µM

Same assay, conditions: rat, gh3-tre-luc cells, AC50 (uM) modified / 1000, Tox21_110001=Tox21_202023; viability, 1 nM T3 present, 24 h

Compound | CC50 at 24 h
ClCC(Cl)CCl [1,2,3-Trichloropropane] | > 90 µM

Same assay, conditions: rat, gh3-tre-luc cells, AC50 (uM) modified / 1000, Tox21_110001=Tox21_202795; viability, 1 nM T3 present, 24 h

Compound | CC50 at 24 h
O=C(CCl)C(Cl)Cl [1,1,3-Trichloropropanone] | 13 µM

Same assay, conditions: rat, gh3-tre-luc cells, AC50 (uM) modified / 1000, Tox21_110001=Tox21_303182; viability, 1 nM T3 present, 24 h

Compound | CC50 at 24 h
CN1C[C@H](C(=O)N[C@]2(C)O[C@@]3(O)[C@@H]4CCCN4C(=O)[C@H](Cc4ccccc4)N3C2=O)C=C2c3cccc4[nH]cc(c34)C[C@H]21 [Ergotamine D-tartrate] | > 40 µM
